Results from patent publication US8101211B2, “Compositions for retarding skin aging” (Kabushiki Kaisha Yakult Honsha, priority 2000, dated 2012).
Converted amounts (≈) assume the structure as drawn.

Key:
[1] = test system: B16 mouse melanoma cells (B16-F1 cells, ATCC No. CRL-6323); assay: Melanin formation-inhibiting test (extracellular melanin, 96-well plate method); format: cell-based; conditions: for IC50: Mus musculus, extracellular melanin, B16-F1 cells, read-out: Melanin formation inhibition IC50; for Melanin formation inhibition, % Inhibition at 0.001%: test concentration 0.001%, 3 days, theophylline 0.5 mM
Procedure: Measurements were made by the 96-well plate method using […] mouse melanoma cells (B16-F1 cells, ATCC No. CRL-6323) purchased from Dainippon Pharmaceutical. The cells (1×10^4) were sowed into each well and cultured in 10% FCS- and 1% antibiotic-containing D-MEM for 24 hours (37° C., 5% CO2), the medium was then replaced with D-MEM supplemented with the test substance and theophylline (0.5 mM), and cultivation was further continued for 3 days. The solvent (ethanol) for the test substance was added to the medium in a final concentration of 1%. An equal volume of HEPES buffer (pH 6.8)/ethanol (9:1) was added to the culture supernatant obtained by centrifugation and the absorbance at 475 nm to 660 nm was measured on the microplate reader EL-340 (BIO-TEK INSTRUMENT), and the melanin formation-inhibiting activity was evaluated in terms of the amount of extracellular melanin.

[2] = DPPH radical-capturing activity; conditions: concentration at which DPPH radical scavenging is 50%
Text: [table] […] The extent of activity was expressed in terms of DPPH Radial Scavenging (%) calculated according to the following formula: DPPH Radial Scavenging (%)=(A−B)/A×100 where A: absorbance without addition of sample, B: absorbance with addition of sample. […]

| IC50 [1] | DPPH radical scavenging IC50 [2] | SMILES | Melanin formation inhibition, % Inhibition at 0.001% [1] |
| --- | --- | --- | --- |
| 12.1 µg/mL (≈ 44.4 µM) | – | OC[C@H]1O[C@@H](Oc2ccc(O)cc2)[C@H](O)[C@@H](O)[C@@H]1O [Arbutin] | 32.4% |
| – | 4.1 µg/mL | O=C1O[C@H]([C@@H](O)CO)C(O)=C1O [Ascorbic acid] | – |
| – | 13.5 µg/mL | N[C@@H](CCC(=O)N[C@@H](CS)C(=O)NCC(=O)O)C(=O)O [Glutathione] | – |
| 12.9 µg/mL (≈ 90.8 µM) | – | O=c1cc(CO)occ1O [Kojic acid] | 25.7% |
